# Experimental data published in patent US10543183B2, “Treatment and diagnosis of melanoma” (The Rockefeller University, priority 2012, dated 2020).
# Experiments:
# [1] = tested on: B16F10 mouse melanoma cells; assay: subcutaneous B16F10 tumor growth in mice; format: in vivo; conditions: 50 mg/kg, i.p., daily
# Procedure: First, the cells were treated with 500 μg/mL DTIC for one week. Following this initial DTIC treatment, the remaining (˜10%) viable cells were allowed to recover for one week, after which 750 μg/mL of DTIC was added to the cell media for 5 days. Subsequent to this high-dose treatment, the cells were allowed to recover in the presence of low-dose DTIC (100 μg/mL) for one week. The cells were then continuously cultured in cell media containing 200 μg/mL DTIC for at least one month prior to grafting the cells into mice. DTIC was added to fresh cancer cell media every 3 days. […] DTIC was dissolved in the presence of citric acid (1:1 by weight) in water and administered daily by intraperitoneal injection.
# [2] = tested on: B16F10 mouse melanoma cells; assay: subcutaneous B16F10 tumor growth in mice; format: in vivo; conditions: 50 mg/kg, i.p., daily; remark: listed apart in the source
# [3] = tested on: ApoE expression in human melanoma cells; assay: ApoE mRNA expression by qRT-PCR in melanoma cells; format: cell-based; conditions: MeWo cells; 500 nM, 1 μM, or 2 μM for 48 hours
# Procedure: Total RNA was extracted from various cell lines using the miRvana kit (AM1560, Applied Biosystems, Austin, Tex.). The expression levels of mature miRNAs were quantified using the Taqman miRNA expression assay (4427975-0002228, Applied Biosystems). RNU44 was used as an endogenous control for normalization. For mRNA expression analyses, 600 ng of total RNA was reverse transcribed using the cDNA First-Strand Synthesis Kit (18080-051, Invitrogen), and roughly 200 ng of the resulting cDNA was then mixed with SYBR green PCR Master Mix (4309155, Applied Biosystems) and the appropriate primers. Each reaction was performed in quadruplicate, and mRNA expression was quantified by performing real-time PCR amplification using an ABI Prism 7900HT Real-Time PCR System (Applied Biosystems). GAPDH was used as an endogenous control for normalization. The following primers were used: […]
# RNA was extracted from whole cell lysates using the Total RNA Purification Kit (17200, Norgen, Thorold, Canada). 600 ng of total RNA was then reverse transcribed into cDNA using the cDNA First-Strand Synthesis Kit (18080-051, Invitrogen), and quantitative real-time PCR amplification was performed as previously described (Pencheva et al., 2012) using an ABI Prism 7900HT Real-Time PCR System (Applied Biosystems, Austin, Tex.). Each PCR reaction was carried out in quadruplicates. Gene expression was normalized to GAPDH, which was used as an endogenous control.
# For every sample, 600 ng of RNA was reverse transcribed into cDNA using the cDNA First-Strand Synthesis kit (Invitrogen). Approximately 200 ng of cDNA was mixed with SYBR® green PCR Master Mix and the corresponding forward and reverse primers specific for detection of human ApoE. Each reaction was carried out in quadruplicates, and ApoE mRNA expression levels were measured by quantitative real-time PCR amplification using an ABI Prism 7900HT Real-Time PCR System (Applied Biosystems). The relative ApoE expression was determined using the ΔΔCt method. GAPDH was used as an endogenous control for normalization purposes.
# [4] = tested on: human melanoma cells (MeWo, MeWo-LM2, HT-144, SK-Mel-2, SK-Mel-334.2); assay: trans-well matrigel cell invasion assay, melanoma cells; format: cell-based; conditions: MeWo, HT-144, SK-Mel-2, SK-Mel-334.2; 1 μM for 72 hours
# Procedure: Cancer cells were serum-starved in 0.2% FBS DMEM-based media for 12 hours. Trans-well invasion chambers (354480, BD Biosciences, Bedford, Mass.) were pre-equilibrated prior to beginning the assay by adding 0.5 mL of starvation media to the top and bottom chambers. After 30 minutes, the media in the top chamber was removed, and 0.5 mL of media containing 1×10^5 cancer cells was added into each matrigel-coated trans-well insert and incubated at 37° C. for 24 hours. For neutralization antibody and/or recombinant protein experiments, antibody/recombinant protein was added to each well at the start of the assay at the following concentrations as indicated in the figures: 5-40 μg/mL anti-ApoE 1D7 (Heart Institute, University of Ottawa), 5-40 μg/mL anti-IgG (AB-108-C, R&D Systems, Minneapolis, Minn.), 100 μM recombinant human ApoE3 (4696, BioVision, Mountain View, Calif.), and 100 μM BSA (A2153, Sigma-Aldrich). Upon completion of the assay, matrigel-coated inserts were washed with PBS, the cells at the top side of each insert were scraped off, and the inserts were fixed in 4% paraformaldehyde for 15 minutes. The inserts were then cut out and mounted onto slides using VectaShield mounting medium containing DAPI (H-1000, Vector Laboratories, Burlingame, Calif.). The basal side of each insert was imaged using an inverted fluorescence microscope (Zeiss Axiovert 40 CFL) at 5× magnification, taking three representative images for each insert. The number of invaded cells was quantified using ImageJ (NIH).
# The cell invasion assay was performed as previously described in detail (Pencheva et al., 2012) using a trans-well matrigel invasion chamber system (354480, BD Biosciences). In brief, various melanoma cells were cultured in the presence of DMSO, GW3965, T0901317, or Bexarotene at 1 μM for 56 hours, after which melanoma cells were switched to starvation media (0.2% FBS) for 16 hours in the presence of each drug. Following starvation, cells were seeded into matrigel-coated trans-well inserts, and the invasion assay was allowed to proceed for 24 hours at 37° C. For ApoE antibody neutralization experiments, 40 μg/mL 1D7 anti-ApoE blocking antibody (Heart Institute, University of Ottawa, Ottawa, Canada) or 40 μg/mL anti-IgG control antibody (AB-108-C, R&D Systems, Minneapolis, Minn.) was added to each trans-well insert at the start of the assay.
# The cells were then serum starved for 16 hours in 0.2% FBS media in the presence of each corresponding drug or DMSO. Following serum starvation, the cells were subjected to the trans-well invasion assay using a matrigel invasion chamber system (354480, BD Biosciences). Invasion chambers were pre-equilibrated prior to the assay by adding 0.5 mL of starvation media to the top and bottom wells. Meanwhile, cancer cells were trypsinized and viable cells were counted using trypan blue. Cancer cells were then resuspended at a concentration of 2×10^5 cells/1 mL starvation media, and 0.5 mL of cell suspension, containing 1×10^5 cells, was seeded into each trans-well. The invasion assay was allowed to proceed for 24 hours at 37° C. […] Following fixation, the inserts were washed in PBS, cut out, and mounted onto slides using VectaShield mounting medium containing DAPI nuclear stain (H-1000, Vector Laboratories). The basal side of each insert was imaged using an inverted fluorescence microscope (Zeiss Axiovert 40 CFL) at 5× magnification, and the number of DAPI-positive cells was quantified using ImageJ.
# [5] = tested on: endothelial cells (HUVEC) recruited by human melanoma cells; assay: trans-well endothelial recruitment assay; format: cell-based; conditions: MeWo, HT-144, SK-Mel-2, SK-Mel-334.2; 1 μM for 72 hours
# Procedure: 5×10^4 cancer cells were seeded into 24-well plates approximately 24 hours prior to the start of the assay. HUVEC's were grown to 80% confluency and serum starved in EGM-2 media supplemented with 0.2% FBS for 16 hours. HUVEC's were then pulsed with Cell Tracker Red CMTPX dye (C34552, Invitrogen) for 45 minutes. Meanwhile, cancer cells were washed with PBS, 0.5 mL of 0.2% FBS EGM-2 media was added to each well, and a 3.0 μm HTS Fluoroblock insert (351151, BD Falcon, San Jose, Calif.) was placed into each well. 1×10^5 HUVEC's, resuspended in 0.5 mL of starvation media, were seeded into each trans-well insert, and the recruitment assay was allowed to proceed for 16-18 hours at 37° C. For neutralization antibody and/or recombinant protein experiments, antibody/protein was then added to each well at the appropriate concentration as indicated in the figures: 40 μg/mL anti-ApoE 1D7, 40 μg/mL anti-IgG, 100 μM rhApoE3, and 100 μM BSA. Upon completion of the assay, the inserts were processed and analyzed as described for the matrigel invasion assay above (See Matrigel Invasion Assay).
# The endothelial recruitment assay was carried out as previously described (Pencheva et al., 2012; Png et al., 2012). Melanoma cells were treated with DMSO, GW3965, T0901317, or Bexarotene at 1 μM for 56 hours, after which 5×10^4 cells were seeded in a 24-well plate in the presence of each drug and allowed to attach for 16 hours prior to starting the assay. HUVEC cells were serum-starved overnight in EGM-2 media containing 0.2% FBS. The following day, 1×10^5 HUVEC cells were seeded into a 3.0 μm HTS Fluoroblock trans-well migration insert (351151, BD Falcon, San Jose, Calif.) fitted into each well containing cancer cells at the bottom. The HUVEC cells were allowed to migrate towards the cancer cells for 20 hours at 37° C., after which the inserts were processed as previously described (Pencheva et al., 2012). For ApoE antibody neutralization experiments, 40 μg/mL 1D7 anti-ApoE blocking antibody (Heart Institute, University of Ottawa, Ottawa, Canada) or 40 μg/mL anti-IgG control antibody (AB-108-C, R&D Systems, Minneapolis, Minn.) was added to each trans-well insert at the start of the assay.
# Subsequently, 5×10^4 cancer cells were seeded into 24-well plates in the presence of each drug or DMSO and allowed to attach for 16 hours prior to starting the assay. Human umbilical vein endothelial cells (HUVEC cells) were serum-starved in 0.2% FBS-containing media overnight. The following day, 1×10^5 HUVEC cells were seeded into a 3.0 μm HTS Fluoroblock insert (351151, BD Falcon) fitted into each well containing the cancer cells at the bottom. The HUVEC cells were allowed to migrate towards the cancer cells for 20 hours, after which the inserts were washed in PBS, fixed in 4% PFA, labeled with DAPI, and mounted on slides. The basal side of each insert was imaged using an inverted fluorescence microscope (Zeiss Axiovert 40 CFL) at 5× magnification, and the number of DAPI-positive cells was quantified using ImageJ.
# melanoma cells = assay: cell proliferation and viability assay; format: cell-based, human; conditions: MeWo, HT-144, SK-Mel-334.2; 1 μM, 5 days
# Procedure: To determine the effects of miR-199a or miR-1908 over-expression and combinatorial LNA-induced miRNA inhibition on cell proliferation, 2.5×10^4 cells were seeded in triplicate in 6-well plates, and viable cells were counted after 5 days. […] Viable cells were counted after 8, 24, 48, 72, and 120 hours.
# After 5 days, the number of viable and dead cells was counted using the trypan blue dye (72-57-1, Sigma-Aldrich), which selectively labels dead cells.
structure (smiles),measurement,setting,value
"CN(C)/N=N/c1[nH]cnc1C(N)=O [dacarbazine, reference compound]",tumor growth by B16F10 DTIC-resistant cells,[1],did not affect
same,growth of DTIC-sensitive parental B16F10 line,[2],significantly suppressed
Fc1ccc(-c2c3cccc(C(F)(F)F)c3nn2Cc2ccc(F)cc2Cl)cc1 [LXR-623 3],ApoE expression induction,[3],varied degrees of ApoE expression induction
"C=C(c1ccc(C(=O)O)cc1)c1cc2c(cc1C)C(C)(C)CCC2(C)C [bexarotene, reference compound]",ability of melanoma cells to invade through matrigel,[4],suppressed invasion only in half of the melanoma lines tested
same,ability of melanoma cells to recruit endothelial cells,[5],did not significantly affect
same,cell proliferation or cell viability rates,melanoma cells,did not affect
